# Test results: patent publication US20260022142A1, “MACROCYCLIC IMMUNOMODULATORS” (Bristol-Myers Squibb Company, priority 2022, published 2026)
# Numbered stars: 1 amine (or outer) side, 2 acyl side, 3 side chain; on linkers, the order of the positions; unused ones are H or OH. Bridge positions count the residues as written; N and C are the ends. Square brackets hold non-standard residues; d marks the D form. Peptide text beside a SMILES is read from it. * marks the point of attachment. ξ: configuration not given here. Bip = N[C@@H](Cc1ccc(-c2ccccc2)cc1)C(=O)O; Phe(3-Me) = Cc1cccc(C[C@H](N)C(=O)O)c1; γGlu = O=C(O)[C@H](CCC(=O)[*:2])N[*:1]; Cha = N[C@@H](CC1CCCCC1)C(=O)O; Thr(3ξ) = CC(O)[C@H](N)C(=O)O; Carboxymethyl = O=C(O)C*; Orn = NCCC[C@H](N)C(=O)O; Aun = NCCCCCCCCCCC(=O)O; Dab = NCC[C@H](N)C(=O)O; Dap = NC[C@H](N)C(=O)O; AEEA = NCCOCCOCC(=O)O
# Target: T1, PD-1/PD-L1 interaction (PE-labeled human PD-L1-Ig binding to Jurkat cell line over-expressing human PD-1) (Homo sapiens, UniProt Q15116)
# T1 construct: expressed in transfected cells; host or cells: Jurkat
# Experiment: Jurkat-PD-1 Cell Binding High-Content Screening Assay (CBA)
# Type: cell-based
# Conditions: Jurkat cell line over-expressing human PD-1; PE-labeled PD-L1-Ig 20 nM final; read-out: Jurkat hPD1-PDL1 IC50
# Method in brief: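 Read-out is high-content imaging of cell-bound phycoerythrin-tagged PD-L1-Ig on fixed, Hoechst-counterstained Jurkat cells that over-express human PD-1. Compound exposure lasts 2 h at 37° C before the labeled ligand (20 nM final) is added for a further hour.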
# T1 sequence (Q15116 25-288): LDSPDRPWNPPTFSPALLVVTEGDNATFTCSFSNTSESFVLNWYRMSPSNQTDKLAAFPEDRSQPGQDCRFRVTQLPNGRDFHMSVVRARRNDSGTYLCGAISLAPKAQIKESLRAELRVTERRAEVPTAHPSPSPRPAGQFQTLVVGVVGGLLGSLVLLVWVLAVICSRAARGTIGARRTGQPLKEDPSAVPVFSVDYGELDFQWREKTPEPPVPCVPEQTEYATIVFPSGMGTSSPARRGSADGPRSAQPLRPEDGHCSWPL
row,Compound,IC50
1,Cc1cccc(C[C@@H]2NC(=O)[C@H](CC(=O)O)NC(=O)[C@H](Cc3ccc(OCC(=O)O)cc3)NC(=O)[C@H](CCN)NC(=O)CSC[C@@H](C(=O)N[C@H](CC(N)=O)C(=O)NCCCCCCCCCCC(=O)O)NC(=O)[C@H](CO)NC(=O)[C@H](C(C)O)NC(=O)[C@H](CC3CCCCC3)NC(=O)[C@H](CCN)NC(=O)[C@@H](CC(C)C)NC(=O)[C@H](CCCN)NC(=O)[C@H](Cc3ccc(OCC(=O)O)cc3)NC(=O)[C@H](Cc3ccc(-c4ccccc4)cc3)NC(=O)[C@H](Cc3ccc(OCC(=O)O)cc3)NC2=O)c1 (stereo partly drawn) [Compound 3660] ({CH2CO}-[Dab]Y(Carboxymethyl)D[Phe(3-Me)]Y(Carboxymethyl)[Bip]Y(Carboxymethyl)[Orn][dL][Dab][Cha][Thr(3ξ)]SC[dN][Aun]-OH; thioether N-14),67.9 nM
2,CC(C)C[C@H]1NC(=O)[C@H](CCCN)NC(=O)[C@H](C(C)C)NC(=O)[C@H](Cc2ccc(-c3ccccc3)cc2)NC(=O)[C@H](C(C)C)NC(=O)[C@H](Cc2c[nH]c3ccccc23)NC(=O)[C@H](CC(=O)O)NC(=O)[C@H](Cc2ccc(OCC(=O)O)cc2)NC(=O)[C@H](C(C)O)NC(=O)CSC[C@@H](C(=O)N[C@@H](CCN)C(=O)NCCCCCCCCCCC(=O)O)NC(=O)[C@H](CN)NC(=O)[C@H](C(C)O)NC(=O)[C@H](CC2CCCCC2)NC(=O)[C@H](CCN)NC1=O (stereo partly drawn) [Compound 3661] ({CH2CO}-[Thr(3ξ)]Y(Carboxymethyl)DWV[Bip]V[Orn][dL][Dab][Cha][Thr(3ξ)][Dap]C[Dab][Aun]-OH; thioether N-14),35.8 nM
3,CC(C)C[C@H]1NC(=O)[C@H](CCCN)NC(=O)[C@H](C(C)C)NC(=O)[C@H](Cc2ccc(-c3ccccc3)cc2)NC(=O)[C@H](C(C)C)NC(=O)[C@H](Cc2c[nH]c3ccccc23)NC(=O)[C@H](CC(=O)O)NC(=O)[C@H](Cc2ccc(OCC(=O)O)cc2)NC(=O)[C@H](C(C)O)NC(=O)CSC[C@@H](C(=O)N[C@@H](CCN)C(=O)NCCOCCOCC(=O)N[C@@H](CCC(=O)NCCCCCCCCCCC(=O)O)C(=O)O)NC(=O)[C@H](CN)NC(=O)[C@H](C(C)O)NC(=O)[C@H](CC2CCCCC2)NC(=O)[C@H](CCN)NC1=O (stereo partly drawn) [Compound 3662] ({CH2CO}-[Thr(3ξ)]Y(Carboxymethyl)DWV[Bip]V[Orn][dL][Dab][Cha][Thr(3ξ)][Dap]C[Dab][AEEA][γGlu][Aun]-OH; thioether N-14),15.1 nM
4,CC(C)C[C@H]1NC(=O)[C@H](CCCN)NC(=O)[C@H](C(C)C)NC(=O)[C@H](Cc2ccc(-c3ccccc3)cc2)NC(=O)[C@H](C(C)C)NC(=O)[C@H](Cc2c[nH]c3ccccc23)NC(=O)[C@H](CC(=O)O)NC(=O)[C@H](Cc2ccc(OCC(=O)O)cc2)NC(=O)[C@H](C(C)O)NC(=O)CSC[C@@H](C(=O)N[C@@H](CCN)C(=O)NCCOCCOCC(=O)N[C@@H](CCC(=O)NCCCCCCCCCCC(=O)O)C(=O)O)NC(=O)[C@H](CCCCN)NC(=O)[C@H](C(C)O)NC(=O)[C@H](CC2CCCCC2)NC(=O)[C@H](CCN)NC1=O (stereo partly drawn) [Compound 3663] ({CH2CO}-[Thr(3ξ)]Y(Carboxymethyl)DWV[Bip]V[Orn][dL][Dab][Cha][Thr(3ξ)]KC[Dab][AEEA][γGlu][Aun]-OH; thioether N-14),15.3 nM
5,CC(C)C[C@H]1NC(=O)[C@H](CCCN)NC(=O)[C@H](C(C)C)NC(=O)[C@H](Cc2ccc(-c3ccccc3)cc2)NC(=O)[C@H](C(C)C)NC(=O)[C@H](Cc2c[nH]c3ccccc23)NC(=O)[C@H](CC(=O)O)NC(=O)[C@H](Cc2ccc(OCC(=O)O)cc2)NC(=O)[C@H](C(C)O)NC(=O)CSC[C@@H](C(=O)N[C@@H](CCN)C(=O)NCCCCCCCCCCC(=O)O)NC(=O)[C@H](CO)NC(=O)[C@H](C(C)O)NC(=O)[C@H](CC2CCCCC2)NC(=O)[C@H](CCN)NC1=O (stereo partly drawn) [Compound 3664] ({CH2CO}-[Thr(3ξ)]Y(Carboxymethyl)DWV[Bip]V[Orn][dL][Dab][Cha][Thr(3ξ)]SC[Dab][Aun]-OH; thioether N-14),27.7 nM
